Values after ≈ are worked out from the molar mass of the structure shown. Active and inactive are the calls of the source. The calls are words filed in the database; no cut-off is given here.
Legend:
[1] = Lipophilicity, logD of compound; assay type: physicochemical; conditions: octanol/water
[2] = Permeability across apical to basolateral side in human Caco2 cells measured at 120 mins by LC-MS/MS analysis; assay type: ADME, cell-based; conditions: Caco-2, read-out: permeability
[3] = biological target: Voltage-gated inwardly rectifying potassium channel KCNH2 (Homo sapiens, UniProt Q12809); assay: Inhibition of human ERG
[4] = biological target: Protein kinase C theta type (Homo sapiens, UniProt Q04759); assay: Inhibition of human recombinant full length His tagged PKC theta expressed in baculovirus using ERMRPRKRQGSVRRRV peptide as substrate incubated for 60 mins in presence of [33P] gammaATP by microbeta liquid scintillation counter
[5] = biological target: Protein kinase C alpha type (Homo sapiens, UniProt P17252); assay: Inhibition of recombinant full length PKC alpha (unknown origin) using RRRRRKGSFKRKA peptide as substrate measured after 15 mins in presence of ATP by spectrophotometric analysis
[6] = biological target: Protein kinase C delta type (Homo sapiens, UniProt Q05655); assay: Inhibition of recombinant full length PKC delta (unknown origin) using ERMRPRKR- QGSVRRRV peptide as substrate measured after 15 mins in presence of ATP by spectrophotometric analysis
[7] = Clearance in iv dosed rat; assay type: ADME, organism-based; conditions: in vivo
[8] = Half-life in iv dosed rat; assay type: ADME, organism-based; conditions: in vivo
[9] = test system: PBMC; assay: Inhibition of IL-2 secretion from human PBMC cells stimulated with anti-CD3/CD28 measured after 24 hrs by bead-based FLISA; assay type: functional, cell-based
[10] = Efflux ratio of permeability in human Caco2 cells by LC-MS/MS analysis; assay type: ADME, cell-based; conditions: Caco-2
[11] = Clerance in iv dosed dog; assay type: ADME, organism-based, Canis lupus familiaris; conditions: in vivo
[12] = Half-life in iv dosed dog; assay type: ADME, organism-based, Canis lupus familiaris; conditions: in vivo
[13] = Half-life in iv dosed cynomolgus monkey; assay type: ADME, organism-based, Macaca fascicularis; conditions: in vivo
[14] = Clearance in iv dosed cynomolgus monkey; assay type: ADME, organism-based, Macaca fascicularis; conditions: in vivo
[15] = Oral bioavailability in mouse; assay type: ADME, organism-based; conditions: in vivo
[16] = Oral bioavailability in rat; assay type: ADME, organism-based; conditions: in vivo
[17] = Thermodynamic solubility of compound in sodium phosphate buffer at pH 7.4; assay type: physicochemical; conditions: read-out: Therm_solubility
[18] = Stability of compound in human liver microsomes assessed as compound remaining at 30 mins; assay type: ADME, Microsome; conditions: read-out: Stability
[19] = Stability of compound in rat liver microsomes assessed as compound remaining at 30 mins; assay type: ADME, Microsome; conditions: read-out: Stability
[20] = test system: HFL1; assay: Cytotoxicity against human HFL1 cells assessed as growth inhibition measured after 48 hrs by 3H-thymidine incorporation assay; assay type: cell-based
[21] = Dissociation constant, pKa of compound; assay type: physicochemical
[22] = Unbound drug level in brain of BALB/c mouse at 50 mg/kg, po measured after 3 hrs; assay type: ADME, organism-based; conditions: in vivo
[23] = Unbound drug level in brain of BALB/c mouse at 100 mg/kg, po measured after 3 hrs; assay type: ADME, organism-based; conditions: in vivo
[24] = biological target: Protein kinase C beta type (Homo sapiens, UniProt P05771); assay: Inhibition of human PKC beta
[25] = test system: Mus musculus; assay: Anti-inflammatory activity in C57BL/6 mouse model of MOG (35 to 55 residues)/pertussis toxin/complete Freund's adjuvant-induced autoimmune encephalomyelitis assessed as reduction in development of clinical symptoms at 50 mg/kg, po bid starting from day 8 post immunization upto 10 days; assay type: functional, organism-based
[26] = test system: Mus musculus; assay: In vivo inhibition of Il-2 production in BALB/c mouse at 25 to 100 mg/lg, po measured after 3 hrs; assay type: functional, organism-based
[27] = Inhibition of CD3/CD28 stimulated IL-17 secretion from human Th17 cells measured after 24 hrs by ELISA
[28] = biological target: Cytochrome P450 3A4 (Homo sapiens, UniProt P08684); assay: Inhibition of CYP3A4 (unknown origin) at 22 uM; assay type: ADME
[29] = biological target: Cytochrome P450 2C9 (Homo sapiens, UniProt P11712); assay: Inhibition of CYP2C9 (unknown origin) at > 30 uM; assay type: ADME
[30] = biological target: Cytochrome P450 2D6 (Homo sapiens, UniProt P10635); assay: Inhibition of CYP2D6 (unknown origin) at > 30 uM; assay type: ADME
Sequence of Cytochrome P450 2D6 (P10635 whole entry): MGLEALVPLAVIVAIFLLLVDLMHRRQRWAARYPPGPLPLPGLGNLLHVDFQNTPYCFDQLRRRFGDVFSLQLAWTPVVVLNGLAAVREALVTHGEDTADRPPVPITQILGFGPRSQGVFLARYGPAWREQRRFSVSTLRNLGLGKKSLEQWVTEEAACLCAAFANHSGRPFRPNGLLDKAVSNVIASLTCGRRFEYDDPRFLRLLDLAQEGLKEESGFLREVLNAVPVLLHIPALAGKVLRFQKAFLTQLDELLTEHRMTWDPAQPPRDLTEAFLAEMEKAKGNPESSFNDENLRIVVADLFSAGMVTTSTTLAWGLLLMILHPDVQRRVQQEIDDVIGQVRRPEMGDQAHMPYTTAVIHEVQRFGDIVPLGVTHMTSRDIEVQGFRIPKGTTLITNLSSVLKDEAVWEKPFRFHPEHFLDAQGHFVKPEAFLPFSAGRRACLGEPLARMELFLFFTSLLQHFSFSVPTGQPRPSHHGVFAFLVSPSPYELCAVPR

Sequence of Voltage-gated inwardly rectifying potassium channel KCNH2 (Q12809 whole entry): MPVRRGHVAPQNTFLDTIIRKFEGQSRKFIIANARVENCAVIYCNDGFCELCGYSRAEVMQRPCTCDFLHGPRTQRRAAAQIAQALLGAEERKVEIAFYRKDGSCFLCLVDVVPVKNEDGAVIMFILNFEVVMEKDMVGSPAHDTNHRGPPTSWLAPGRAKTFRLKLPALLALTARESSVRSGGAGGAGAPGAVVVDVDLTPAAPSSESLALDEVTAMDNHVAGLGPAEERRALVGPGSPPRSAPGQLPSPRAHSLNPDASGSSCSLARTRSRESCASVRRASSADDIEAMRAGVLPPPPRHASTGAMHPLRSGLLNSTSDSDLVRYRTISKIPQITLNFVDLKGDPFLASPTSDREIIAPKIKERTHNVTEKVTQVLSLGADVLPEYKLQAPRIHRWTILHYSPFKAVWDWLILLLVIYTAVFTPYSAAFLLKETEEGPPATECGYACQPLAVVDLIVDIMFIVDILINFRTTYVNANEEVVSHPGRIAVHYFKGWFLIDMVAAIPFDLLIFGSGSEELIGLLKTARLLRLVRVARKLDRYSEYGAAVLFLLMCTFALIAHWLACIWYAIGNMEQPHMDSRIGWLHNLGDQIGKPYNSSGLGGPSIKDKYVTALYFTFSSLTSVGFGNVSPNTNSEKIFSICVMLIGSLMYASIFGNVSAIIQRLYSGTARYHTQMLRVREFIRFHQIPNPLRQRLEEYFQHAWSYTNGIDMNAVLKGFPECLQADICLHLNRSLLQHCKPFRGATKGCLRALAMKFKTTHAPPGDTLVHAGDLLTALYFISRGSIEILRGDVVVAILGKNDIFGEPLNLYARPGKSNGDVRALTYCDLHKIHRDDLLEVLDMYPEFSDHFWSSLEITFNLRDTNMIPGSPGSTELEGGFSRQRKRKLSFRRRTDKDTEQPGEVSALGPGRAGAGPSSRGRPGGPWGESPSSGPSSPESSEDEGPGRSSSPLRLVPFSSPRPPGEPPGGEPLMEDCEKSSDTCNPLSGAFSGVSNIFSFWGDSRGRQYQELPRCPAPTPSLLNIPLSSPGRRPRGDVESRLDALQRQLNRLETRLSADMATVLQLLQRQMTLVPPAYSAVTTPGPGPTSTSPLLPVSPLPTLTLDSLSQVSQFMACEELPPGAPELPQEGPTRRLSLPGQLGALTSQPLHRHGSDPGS
Sequence of Protein kinase C theta type (Q04759 whole entry): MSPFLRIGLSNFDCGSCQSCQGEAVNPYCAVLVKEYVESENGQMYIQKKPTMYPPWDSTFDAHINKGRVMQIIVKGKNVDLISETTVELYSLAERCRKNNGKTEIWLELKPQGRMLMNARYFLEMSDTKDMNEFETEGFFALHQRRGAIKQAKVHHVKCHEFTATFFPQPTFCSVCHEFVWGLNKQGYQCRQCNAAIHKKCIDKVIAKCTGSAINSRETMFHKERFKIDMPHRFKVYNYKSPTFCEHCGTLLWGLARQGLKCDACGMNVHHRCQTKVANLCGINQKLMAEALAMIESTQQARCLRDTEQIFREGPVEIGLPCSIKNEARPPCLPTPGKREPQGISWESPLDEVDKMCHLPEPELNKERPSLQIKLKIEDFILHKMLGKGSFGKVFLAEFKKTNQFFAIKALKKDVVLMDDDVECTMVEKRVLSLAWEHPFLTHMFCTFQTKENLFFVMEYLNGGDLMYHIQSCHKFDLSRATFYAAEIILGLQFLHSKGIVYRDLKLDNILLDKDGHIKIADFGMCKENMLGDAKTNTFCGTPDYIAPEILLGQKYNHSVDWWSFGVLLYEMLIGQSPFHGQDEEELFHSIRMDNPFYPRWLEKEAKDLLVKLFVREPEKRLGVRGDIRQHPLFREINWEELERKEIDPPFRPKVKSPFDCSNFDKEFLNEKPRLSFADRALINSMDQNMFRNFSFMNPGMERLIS
Sequence of Protein kinase C delta type (Q05655 whole entry): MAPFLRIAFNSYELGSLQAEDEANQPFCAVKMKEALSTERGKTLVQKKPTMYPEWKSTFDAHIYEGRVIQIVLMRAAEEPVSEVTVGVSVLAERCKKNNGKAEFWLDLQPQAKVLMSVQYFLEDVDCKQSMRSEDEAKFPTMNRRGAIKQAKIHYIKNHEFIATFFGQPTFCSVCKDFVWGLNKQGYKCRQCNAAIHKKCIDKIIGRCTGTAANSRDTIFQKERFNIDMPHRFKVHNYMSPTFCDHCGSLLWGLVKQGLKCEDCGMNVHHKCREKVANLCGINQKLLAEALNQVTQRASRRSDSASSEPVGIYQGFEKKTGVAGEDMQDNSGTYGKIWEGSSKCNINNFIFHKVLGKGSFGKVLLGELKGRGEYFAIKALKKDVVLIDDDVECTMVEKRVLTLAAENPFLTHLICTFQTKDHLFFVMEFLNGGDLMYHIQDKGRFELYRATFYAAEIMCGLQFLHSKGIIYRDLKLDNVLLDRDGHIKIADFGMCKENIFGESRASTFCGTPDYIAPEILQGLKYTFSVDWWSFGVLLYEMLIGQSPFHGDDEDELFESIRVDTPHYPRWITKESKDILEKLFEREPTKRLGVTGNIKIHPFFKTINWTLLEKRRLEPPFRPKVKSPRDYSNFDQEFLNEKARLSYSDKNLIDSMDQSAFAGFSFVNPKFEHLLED
Sequence of Cytochrome P450 3A4 (P08684 whole entry): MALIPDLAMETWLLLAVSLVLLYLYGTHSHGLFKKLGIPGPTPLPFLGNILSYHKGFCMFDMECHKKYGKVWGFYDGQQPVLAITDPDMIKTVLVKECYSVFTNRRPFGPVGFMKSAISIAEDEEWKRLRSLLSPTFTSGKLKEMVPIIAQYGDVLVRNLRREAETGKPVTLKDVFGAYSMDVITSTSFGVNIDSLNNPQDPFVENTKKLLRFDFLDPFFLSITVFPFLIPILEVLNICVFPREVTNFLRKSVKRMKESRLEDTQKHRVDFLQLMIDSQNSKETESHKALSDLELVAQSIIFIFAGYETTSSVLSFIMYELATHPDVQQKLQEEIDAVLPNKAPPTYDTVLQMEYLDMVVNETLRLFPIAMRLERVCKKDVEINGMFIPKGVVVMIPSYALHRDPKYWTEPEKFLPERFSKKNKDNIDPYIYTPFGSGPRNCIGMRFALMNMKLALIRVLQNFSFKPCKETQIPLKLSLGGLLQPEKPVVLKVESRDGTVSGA
Sequence of Cytochrome P450 2C9 (P11712 whole entry): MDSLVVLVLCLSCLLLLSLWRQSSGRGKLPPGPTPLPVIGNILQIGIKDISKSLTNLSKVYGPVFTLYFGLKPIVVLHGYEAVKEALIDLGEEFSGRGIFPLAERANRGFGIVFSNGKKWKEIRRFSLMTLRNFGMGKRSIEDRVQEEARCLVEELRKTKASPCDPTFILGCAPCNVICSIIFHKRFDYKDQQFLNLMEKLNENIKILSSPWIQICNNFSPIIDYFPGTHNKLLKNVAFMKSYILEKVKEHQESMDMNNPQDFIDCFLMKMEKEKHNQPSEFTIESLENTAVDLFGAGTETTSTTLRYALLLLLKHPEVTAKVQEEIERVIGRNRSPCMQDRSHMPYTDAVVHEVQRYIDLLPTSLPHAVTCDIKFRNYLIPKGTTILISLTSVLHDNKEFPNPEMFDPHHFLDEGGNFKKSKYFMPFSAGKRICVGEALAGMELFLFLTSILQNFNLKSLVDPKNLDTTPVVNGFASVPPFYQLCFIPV

Row | SMILES | logD [1] | IC50 [3] [nM] | Ki [4] [nM] | Ki [5] [nM] | Ki [6] [nM] | IC50 [9] [nM] | remaining at 0.5 h [18] [%] | remaining at 0.5 h [19] [%] | IC50 [20] [nM] | pKa [21] | also measured
1 | NCC1(c2cccc(-c3ccnc4[nH]nc(C(F)(F)F)c34)c2)COC1 | 1.7 | > 10000 | 6 | 1020 | 392 | 210 | 100 | 77 | > 10000 | 7.6 | Papp A→B at 2 h [2]: 19 ×10⁻⁶ cm/s; clearance [7]: 62 mL/min/kg; half-life [8]: 1.2 h; efflux ratio [10]: 2.4; clearance [11]: 12 mL/min/kg; half-life [12]: 6.2 h; half-life [13]: 5.1 h; clearance [14]: 9 mL/min/kg; bioavailability [15]: 67%; bioavailability [16]: 46%; solubility thermodynamic [17]: 515 µM (≈ 179 µg/mL); Drug uptake(free) [22]: 0.19 µM; Drug uptake(free) [23]: 0.4 µM; Ki [24]: 1700 nM; Activity [25]: Active; inhibition [26]: Active; IC50 [27]: 1000 nM
2 | Cc1cc(-c2ccnc3[nH]nc(C(F)(F)F)c23)cc(C2(CN)COC2)c1 | 2.2 | > 10000 | 8 | 286 | 542 | 450 | 86 | 59 | 2500 | 7.9 | inhibition (INH) [28]: Active; inhibition (INH) [29]: Active; inhibition (INH) [30]: Active

From ChEMBL document CHEMBL4396928, “Discovery of Selective, Orally Bioavailable Pyrazolopyridine Inhibitors of Protein Kinase Cθ (PKCθ) That Ameliorate Symptoms of Experimental Autoimmune Encephalomyelitis” (ACS Med Chem Lett, 2019)
